# Reference: patent US20070191349A1, “C8, c8' linked 5-oxo-1,2,3,11a-tetrahydro-5h-pyrrolo[2,1-c][1,4] benzodiazepine dimers with 1h-pyrrole-dicarboxylic acid amide linkers and oligomeric analogs therof as well as related compounds for the treatment of proliferative diseases” (SPIROGEN LIMITED, priority 2004, published 2007)
# Where two headings read alike, the source gives them in different places.
# Experiments:
# [1] = system: approximately 60 human tumour cell lines; assay: NCI60 cell screen, in vitro cytotoxicity, SRB assay; assay type: cell-based; details: NCI 60 human tumour cell lines, 48 h continuous exposure
# Protocol: The National Cancer Institute (NCI), Bethesda, Md., USA has available an in vitro cytotoxicity screen which consists of approximately 60 human tumour cell lines against which compounds are tested at a minimum of five concentrations each differing 10-fold. A 48 h continuous exposure protocol is used, where cell viability or growth is estimated with an SRB protein assay.
# The test compounds were evaluated against approximately 60 human tumour cell lines. The NCI screening procedures were described in detail by Monks and co-workers (Monks, A et al., Journal of the National Cancer Institute, 1991, 83, 757). Briefly, cell suspensions were diluted according to the particular cell type and the expected target cell density (5000-40,000 cells per well based on cell growth characteristics), and added by pipette (100 μL) into 96-well microtitre plates. The cells were allowed a preincubation period of 24 h at 37° C. for stabilisation. Dilutions at twice the intended test concentration were added at time zero in 100 μL aliquots to the wells. The test compounds were evaluated at five 10-fold dilutions (10^−4, 10^−5, 10^−6, 10^−7 and 10^−[…]). The test compounds were incubated for 48 h in 5% CO2 atmosphere and 100% humidity. The cells were then assayed using the sulphorhodamine B assay. A plate reader was used to read the optical densities and a microcomputer processed the readings into GI50 values (in Moles), which is the dosage required to limit cell growth to 50%.
# [2] = system: K562 human chronic myeloid leukaemia cells; assay: In vitro cytotoxicity, K562 cells, MTT assay; assay type: cell-based; details: 1 h drug exposure, MTT after 4 days
# Protocol: K562 human chronic myeloid leukaemia cells were maintained in RPM1 1640 medium supplemented with 10% fetal calf serum and 2 mM glutamine at 37° C. in a humidified atmosphere containing 5% CO2 and were incubated with a specified dose of drug for 1 h at 37° C. in the dark. The incubation was terminated by centrifugation (5 min, 300 g) and the cells were washed once with drug-free medium. Following the appropriate drug treatment, the cells were transferred to 96-well microtiter plates (10^4 cells per well, 8 wells per sample). Plates were then kept in the dark at 37° C. in a humidified atmosphere containing 5% CO2. The assay is based on the ability of viable cells to reduce a yellow soluble tetrazolium salt, 3-(4,5-dimethylthiazol-2-yl)-2,5-diphenyl-2H-tetrazolium bromide (MTT, Aldrich-Sigma), to an insoluble purple formazan precipitate. Following incubation of the plates for 4 days (to allow control cells to increase in number by approximately 10 fold), 20 μL of MTT solution (5 mg/mL in phosphate-buffered saline) was added to each well and the plates further incubated for 5 h. The plates were then centrifuged for 5 min at 300 g and the bulk of the medium pipetted from the cell pellet leaving 10-20 μL per well. DMSO (200 μL) was added to each well and the samples agitated to ensure complete mixing. The optical density was then read at a wavelength of 550 nm on a Titertek Multiscan ELISA plate reader, and a dose-response curve was constructed. For each curve, an IC50 value was read as the dose required to reduce the final optical density to 50% of the control value.
# [3] = system: linear pBR322 DNA; assay: DNA cross-linking, electrophoretic assay (Hartley et al.); assay type: biochemical; details: 2 h at 37° C., pH 7.2
# Protocol: The extent of DNA cross-linking induced by each PBD dimer was determined using the electrophoretic assay method of Hartley, et al. (Hartley, J. A., Berardini, M. D., and Souhami, R. L. (1991) Anal. Biochem. 193, 131-134) based on the principle that, following complete denaturation of linear pBR322 DNA (˜4,300 bp) to the single-stranded (SS) form, an interstrand cross-link results in renaturation to double-stranded (DS) in a neutral gel.
# Closed-circular DNA was linearized with HindIII, then dephosphorylated and finally 5′-singly end-labelled using [γ^32P]-ATP and polynucleotide kinase. Reactions containing 30-40 ng of DNA and the test compound were carried out in aqueous TEOA (25 mM triethanolamine, 1 mM EDTA, pH 7.2) buffer at 37° C. in a final volume of 50 μl for 2 h. Reactions were terminated by addition of an equal volume of stop solution (0.6 M NaOAc, 20 mM EDTA, 100 μg/ml tRNA) followed by precipitation with ethanol. Following centrifugation, the supernatant was discarded and the pellet dried by lyophilization. […] Control non-denatured samples were re-suspended in 10 μl of non-denaturing buffer solution (0.6% sucrose, 0.04% bromophenol blue in aqueous TAE buffer [40 mM Tris, 20 mM acetic acid, 2 mM EDTA, pH 8.1]) and loaded directly onto the gel for comparison.
# Electrophoresis was carried out for 14-16 h at 40 V using a 0.8% submerged agarose gel (20×25×0.5 cm) in TAE buffer. Gels were dried under vacuum for 2 h at 80° C. onto one layer each of Whatman 3MM and DE8I filter papers using a BioRad 583 gel dryer. Autoradiographs were obtained after exposure of Hyperfilm-MP film (Amersham plc, U.K.) to the dried gel for either 4 h with a screen (or over night, without a screen, to obtain a sharper image). Film bands were quantitated using a BioRad GS-670 imaging laser densitometer. Percentage cross-linking was calculated by measuring the total DNA in each lane (summed density for the double-stranded [DS] and single-stranded [SS] bands) relative to the amount of cross-linked DNA (density of DS band alone). A dose-response curve was derived by plotting drug concentration against the determined percentage level of cross-linked DNA which was then analysed to determine the concentration of test compound that results in 50% cross-linked plasmid DNA (XL50).
# [4] = Alkali, read-out: XL50 (concentration that results in 50% cross-linked plasmid DNA), Alkali
# [5] = Heat, read-out: XL50 (concentration that results in 50% cross-linked plasmid DNA), Heat
SMILES,GI50 [1],IC50 [2],"EC50 [3, 4]","EC50 [3, 5]"
COc1cc2c(cc1OCCCC(=O)Nc1cc(C(=O)NCCCNC(=O)c3cc(NC(=O)CCCOc4cc5c(cc4OC)C(=O)N4CCC[C@H]4C=N5)cn3C)n(C)c1)N=C[C@@H]1CCCN1C2=O [(15) AT-281],10 nM,340 nM,–,–
COc1cc2c(cc1OCCCNC(=O)c1ccc(C(=O)NCCCOc3cc4c(cc3OC)C(=O)N3CCC[C@H]3C=N4)n1C)N=C[C@@H]1CCCN1C2=O [(13) AT-217],19000 nM,–,350 nM,3800 nM
"COc1cc2c(cc1NC(=O)c1cc(C(=O)Nc3cc4c(cc3OC)C(=O)N3CCC[C@H]3C=N4)n(C)c1)N=C[C@@H]1CCCN1C2=O [(2) SJG-604, 1-Methyl-1H-pyrrole-2,4-dicarboxylic acid bis-[(11aS)(7-methoxy-5-oxo-1,2,3,11a-tetrahydro-5H-pyrrolo[2,1-c][1,4]benzodiazepin-8-yl)-amide]]",31600 nM,23000 nM,3500 nM,–
"COc1cc2c(cc1NC(=O)c1ccc(C(=O)Nc3cc4c(cc3OC)C(=O)N3CCC[C@H]3C=N4)n1C)N=C[C@@H]1CCCN1C2=O [(1) SJG-605, 1-Methyl-1H-pyrrole-2,5-dicarboxylic acid bis-[(11aS)(7-methoxy-5-oxo-1,2,3,11a-tetrahydro-5H-pyrrolo[2,1-c][1,4]benzodiazepin-8-yl)-amide]]",1000 nM,1200 nM,1300 nM,–
COc1cc2c(cc1OCCCNC(=O)c1cc(NC(=O)c3cc(NC(=O)c4cc(NC(=O)CCCOc5cc6c(cc5OC)C(=O)N5CCC[C@H]5C=N6)cn4C)cn3C)cn1C)N=C[C@@H]1CCCN1C2=O [(18) AT-235],10 nM,1510 nM,< 100 nM,230 nM
